Measured values as given in article PMC4511154 (Journal of molecular microbiology and biotechnology, 2015).
Values belong to the molecule of their own block, whether it stands above or below them.

Key:
TagK-TF^His6 = TagK-TF^His6 (Bacillus licheniformis, UniProt Q65EY9); experiment: coupled assay LacD/TPI/G3PDH, NADH oxidation at […] nm; assay type: biochemical; conditions: read-out: % residual activity at 10 mM
purified protein = substrate: O=C(COP(=O)(O)O)[C@@H](O)[C@@H](O)[C@H](O)CO; experiment: purified protein; assay type: biochemical, Bacillus licheniformis; conditions: 2 mM ATP, 10 mM MgCl2, 50 mM Tris-HCl pH 8.0, 25 °C

remaining activity at 10000 µM (TagK-TF^His6): 69%
Molecule: O=P(O)(O)OC[C@H]1OC(O)(CO)[C@@H](O)[C@@H]1O (stereo partly drawn) [Fru-6P, D-fructose 6-phosphate]

remaining activity at 10000 µM (TagK-TF^His6): 43%
Molecule: O=P(O)(O)OC[C@H]1OC(O)(CO)[C@@H](O)[C@H]1O (stereo partly drawn) [Tag-6P, D-tagatose-6-phosphate]

B1: TagK-TF^His6 (Bacillus licheniformis DSM 13 = ATCC 14580) (protein)
chain: MIYTCTMNTAVDLFVETDELLPDVVNRTKDEDYQPNGKGVNISFMLKRLGLDNTALGFTGGFTGRFIENELLNEKIVTDFVEVEGISRINIFINSTREFKIVNKGPLISEARKQELINKIRQIPPGRFLFISGSLPRGVPDDMYLSLSEIAAENKLKLILDISSPVLLDCLSYHPYLIKPNEQELAAFFSRKKALSEEEIIHCGKELLDRGAERVLISRGKDGALYLDRQRTLKATAAKGKVVNTACAGDAMLAVFVGKQELGCSVPEALRHASAAGSLTAFSKGLGDVSKLDQTASQIQITHL
Km (purified protein): 3.2 ± 0.4 mM
kcat (purified protein): 0.44 ± 0.01 s⁻¹
